# Literature values in US20080085858A1, “Pharmaceutical Composition” (KYOWA HAKKO KOGYO CO., LTD., priority 2004, published 2008).
# What was measured:
# [1] = test system: delayed-type allergic reaction in the skin; conditions: animal model; Non-patent Document 1
# [2] = test system: chronic dermatitis models; conditions: Non-patent Document 2
smiles,measurement,setting,value
COc1ccc([C@]2(C#N)CC[C@@H](C(=O)O)CC2)cc1OC1CCCC1 [SB207499],Effect on delayed-type allergic reaction in the skin,[1],inhibit a delayed-type allergic reaction in the skin
same,Therapeutic effects on chronic dermatitis models,[2],exhibit therapeutic effects on chronic dermatitis models
